Experiment: Gravimetric vapour sorption (GVS) analysis
Type: physicochemical
Settings: sample of Example 6
Experimental: Measurements are performed on a multi-sample instrument SPS-100n (Projekt Messtechnik, Ulm, Germany), which is operated in stepping mode at 25° C. A sample of approximately 20 mg is equilibrated at 40% RH before starting a pre-defined humidity program of 40-0-95-0-95-40% RH with steps of 5% ARH and a maximum equilibration time of 24 h per step. The hygroscopic classification is done according to the European Pharmacopeia Technical Guide (1999, page 86), e.g., non-hygroscopic: increase in mass less than 0.2% mass/mass; slightly hygroscopic: increase in mass is less than 2% and equal to or greater than 0.2% mass/mass; hygroscopic: increase in mass is less than 15% and equal to or greater than 2% mass/mass. The mass change between 40% relative humidity and 80% relative humidity in the first adsorption scan is evaluated for this classification.

GVS change of the water content (between 0% and 95% RH, 25° C., almost linear, small hysteresis between ca. 50% and 85% RH): 2% | GVS maximum water content (corresponds to approximately 1 equivalent of water): 2%
SMILES: COc1noc(CCNC(=O)[C@@H]2CC(=O)N(C)[C@@H](CC(C)C)C(=O)N(C)[C@H](CC(F)(F)F)C(=O)N[C@H](Cc3ccccc3)COc3ccc4ncc(F)cc4c3C(=O)N2)n1 [form 1 of the COMPOUND, (3S,7S,10R,13R)-13-benzyl-20-fluoro-7-isobutyl-N-(2-(3-methoxy-1,2,4-oxadiazol-5-yl)ethyl)-6,9-dimethyl-1,5,8,11-tetraoxo-10-(2,2,2-trifluoroethyl)-1,2,3,4,5,6,7,8,9,10,11,12,13,14-tetradecahydro-[1]oxa[4,7,10,14]tetraazacycloheptadecino[16,17-f]quinoline-3-carboxamide]
